This data set relates to CCRIS mutagenicity, Ames/micronucleus/aberration tests. Kind of data set: CCRIS mutagenicity studies.
[1] abbreviates: Test System: AMES SALMONELLA TYPHIMURIUM, Strain/Indicator: TA100, Metabolic Activation: NONE, Method: STANDARD PLATE.
[2] abbreviates: Test System: AMES SALMONELLA TYPHIMURIUM, Strain/Indicator: TA98, Metabolic Activation: NONE, Method: STANDARD PLATE.
[3] abbreviates: Test System: AMES SALMONELLA TYPHIMURIUM, Strain/Indicator: TA1537, Metabolic Activation: NONE, Method: STANDARD PLATE.
The mark [4] stands for this setting: Test System: AMES SALMONELLA TYPHIMURIUM, Strain/Indicator: TA98, Metabolic Activation: RAT, LIVER, S-9, AROCLOR 1254, Method: STANDARD PLATE.
The mark [5] stands for this setting: Test System: AMES SALMONELLA TYPHIMURIUM, Strain/Indicator: TA100, Metabolic Activation: RAT, LIVER, S-9, AROCLOR 1254, Method: STANDARD PLATE.
The mark [6] stands for this setting: Test System: AMES SALMONELLA TYPHIMURIUM, Strain/Indicator: TA1535, Metabolic Activation: NONE, Method: STANDARD PLATE.
Where [7] appears, read: Test System: AMES SALMONELLA TYPHIMURIUM, Strain/Indicator: TA1537, Metabolic Activation: RAT, LIVER, S-9, AROCLOR 1254, Method: STANDARD PLATE.

Each structure is given as a SMILES string. Active and inactive are the calls of the source. The rule behind the calls is not given here.

As to `O=C(NCc1ccccc1)C(Br)c1ccccc1` (stereo not given), the mutagenic call runs as follows: (Test System: AMES SALMONELLA TYPHIMURIUM, Strain/Indicator: TA100, Metabolic Activation: MOUSE, LIVER, S-9, AROCLOR 1254, Method: STANDARD PLATE) “inactive; negative”; under setting [1], “inactive; negative”.
For the molecule `Clc1cnc(Oc2ccc(Oc3ncc(Cl)cc3Cl)cc2)c(Cl)c1`, the mutagenic call by setting is: under setting [2], “inactive; negative”; (Test System: AMES SALMONELLA TYPHIMURIUM, Strain/Indicator: TA98, Metabolic Activation: RAT, LIVER, S-9, PHENOBARBITAL AND 5,6-BENZOFLAVONE, Method: STANDARD PLATE) “inactive; negative”; (Test System: AMES SALMONELLA TYPHIMURIUM, Strain/Indicator: TA98, Method: STANDARD PLATE) “inactive; negative”; under setting [1], “inactive; negative”; (Test System: AMES SALMONELLA TYPHIMURIUM, Strain/Indicator: TA100, Metabolic Activation: RAT, LIVER, S-9, PHENOBARBITAL AND 5,6-BENZOFLAVONE, Method: STANDARD PLATE) “inactive; negative”; (Test System: AMES SALMONELLA TYPHIMURIUM, Strain/Indicator: TA100, Method: STANDARD PLATE) “inactive; negative”. The mutagenic call is, setting by setting: (Test System: AMES SALMONELLA TYPHIMURIUM, Strain/Indicator: TA102, Metabolic Activation: NONE, Method: STANDARD PLATE) “inactive; negative”; (Test System: AMES SALMONELLA TYPHIMURIUM, Strain/Indicator: TA102, Metabolic Activation: RAT, LIVER, S-9, PHENOBARBITAL AND 5,6-BENZOFLAVONE, Method: STANDARD PLATE) “inactive; negative”; (Test System: AMES SALMONELLA TYPHIMURIUM, Strain/Indicator: TA102, Method: STANDARD PLATE) “inactive; negative”.
On to `CC1(C)C[C@@H]2[C@@]34C[C@]3(C(C=O)=C[C@]2(O)C1)[C@@H](O)OC4=O`, for which the mutagenic call is “active; positive” under setting [2]; “active; positive” under setting [1]; “active; positive” (Test System: AMES SALMONELLA TYPHIMURIUM, Strain/Indicator: TA2637, Metabolic Activation: NONE, Method: STANDARD PLATE).
For the molecule `CC1=C[C@]2(O[C@@H]3O[C@H](CO)[C@@H](O)[C@H](O)[C@H]3O)C[C@@H](C)C(=O)[C@@H]2[C@](C)(O)C12CC2`, the mutagenic call runs as follows: (Test System: AMES SALMONELLA TYPHIMURIUM, Strain/Indicator: TA98, Metabolic Activation: NONE, Method: PREINCUBATION) “active; positive”; (Test System: AMES SALMONELLA TYPHIMURIUM, Strain/Indicator: TA98, Metabolic Activation: NONE, Method: PREINCUBATION (PH 7.4)) “inactive; negative”; (Test System: AMES SALMONELLA TYPHIMURIUM, Strain/Indicator: TA98, Metabolic Activation: NONE, Method: PREINCUBATION (PH 8.5)) “active; positive”; (Test System: AMES SALMONELLA TYPHIMURIUM, Strain/Indicator: TA98, Metabolic Activation: S-9, Method: PREINCUBATION (PH 7.4)) “inactive; negative”; (Test System: AMES SALMONELLA TYPHIMURIUM, Strain/Indicator: TA100, Metabolic Activation: NONE, Method: PREINCUBATION) “active; positive”; (Test System: AMES SALMONELLA TYPHIMURIUM, Strain/Indicator: TA100, Metabolic Activation: NONE, Method: PREINCUBATION (PH 7.4)) “inactive; negative”. Moreover, the mutagenic call reads like this: (Test System: AMES SALMONELLA TYPHIMURIUM, Strain/Indicator: TA100, Metabolic Activation: NONE, Method: PREINCUBATION (PH 8.5)) “active; positive”; (Test System: AMES SALMONELLA TYPHIMURIUM, Strain/Indicator: TA100, Metabolic Activation: S-9, Method: PREINCUBATION (PH 7.4)) “inactive; negative”; (Test System: UDS RAT HEPATOCYTES, Strain/Indicator: THY INCORP, Metabolic Activation: NONE, Method: AUTORADIOGRAPHY) “active; positive”.
In the case of `CN(C)CCNC(=O)c1cccc2ncc(-c3ccccc3)nc12`, the mutagenic call under setting [3] is “active; positive”.
Turning to `CC/C=C\C/C=C\C/C=C\CCCCCCCC(=O)O`, the mutagenic call (Test System: AMES SALMONELLA TYPHIMURIUM, Strain/Indicator: TA98, Metabolic Activation: HAMSTER, LIVER, S-9, AROCLOR 1254, Method: STANDARD PLATE) is “inactive; negative”; the mutagenic call under setting [2] was “inactive; negative”; the mutagenic call under setting [4] was “inactive; negative”; the mutagenic call (Test System: AMES SALMONELLA TYPHIMURIUM, Strain/Indicator: TA100, Metabolic Activation: HAMSTER, LIVER, S-9, AROCLOR 1254, Method: STANDARD PLATE) was “inactive; negative”; the mutagenic call under setting [1] was “inactive; negative”; the mutagenic call under setting [5] was “inactive; negative”. The mutagenic call by setting is: (Test System: AMES SALMONELLA TYPHIMURIUM, Strain/Indicator: TA1535, Metabolic Activation: HAMSTER, LIVER, S-9, AROCLOR 1254, Method: STANDARD PLATE) “inactive; negative”; under setting [6], “inactive; negative”; (Test System: AMES SALMONELLA TYPHIMURIUM, Strain/Indicator: TA1535, Metabolic Activation: RAT, LIVER, S-9, AROCLOR 1254, Method: STANDARD PLATE) “inactive; negative”; (Test System: AMES SALMONELLA TYPHIMURIUM, Strain/Indicator: TA1537, Metabolic Activation: HAMSTER, LIVER, S-9, AROCLOR 1254, Method: STANDARD PLATE) “inactive; negative”; under setting [3], “inactive; negative”; under setting [7], “inactive; negative”. Also, the mutagenic call is, setting by setting: (Test System: AMES SALMONELLA TYPHIMURIUM, Strain/Indicator: TA1538, Metabolic Activation: HAMSTER, LIVER, S-9, AROCLOR 1254, Method: STANDARD PLATE) “inactive; negative”; (Test System: AMES SALMONELLA TYPHIMURIUM, Strain/Indicator: TA1538, Metabolic Activation: NONE, Method: STANDARD PLATE) “inactive; negative”; (Test System: AMES SALMONELLA TYPHIMURIUM, Strain/Indicator: TA1538, Metabolic Activation: RAT, LIVER, S-9, AROCLOR 1254, Method: STANDARD PLATE) “inactive; negative”; (Test System: MOUSE LYMPHOMA, Strain/Indicator: L5178Y (TK+/TK-), Metabolic Activation: NONE, Method: SUSPENSION/PLATE) “inactive; negative. reevaluation of results: inconclusive”; (Test System: MOUSE LYMPHOMA, Strain/Indicator: L5178Y (TK+/TK-), Metabolic Activation: RAT, LIVER, S-9, AROCLOR 1254, Method: SUSPENSION/PLATE) “inactive; negative. reevaluation of results: negative”.
For `Oc1ccc2ccc3c4ccccc4cc4ccc1c2c43`, the mutagenic call was “active; positive” (Test System: AMES SALMONELLA TYPHIMURIUM, Strain/Indicator: TA97, Metabolic Activation: RAT, LIVER, S-9, AROCLOR 1254, Method: STANDARD PLATE); “active; positive” under setting [2]; “active; positive” under setting [4]; “active; positive” under setting [1]; “active; positive” under setting [5]; “active; positive” under setting [7]. The mutagenic call (Test System: CHINESE HAMSTER V-79, Strain/Indicator: V-79/8-AZAGUANINE, Metabolic Activation: NONE, Method: STANDARD PLATE) is “active; positive”.
For the molecule `[N-]=[N+]=NC[C@@H](O)[C@H](O)[C@H](O)[C@@H](O)CO`, under setting [6], the mutagenic call is “active; positive”.
Consider `C=C1C[C@@]23CC[C@H]4[C@@](C)(CCC[C@@]4(C)C(=O)O)[C@@H]2CC[C@]1(O[C@@H]1O[C@H](CO)[C@@H](O)[C@H](O[C@@H]2O[C@H](CO)[C@@H](O)[C@H](O)[C@H]2O)[C@H]1O[C@@H]1O[C@H](CO)[C@@H](O)[C@H](O)[C@H]1O)C3`, for which the mutagenic call (Test System: AMES SALMONELLA TYPHIMURIUM, Strain/Indicator: TM677, Metabolic Activation: RAT, LIVER, S-9, AROCLOR 1254, Method: PREINCUBATION) is “inactive; negative”.
